According to the NIST ThermoML archive (doi:10.1016/j.fluid.2011.09.014):
± gives the expanded uncertainty stated by the source.

Experiments:
[1] = refractive index (Na D-line) (dimensionless); conditions: 101.33 kPa, Liquid, Standard Abbe refractometry
[2] = Liquid; for mass density: 101.33 kPa, Vibrating tube method; for Normal boiling temperature: Closed cell (Static) method
[3] = refractive index (Na D-line) (dimensionless); xn = mol fraction of the nth substance listed; conditions: 294.15 K; 101 kPa; Liquid; Standard Abbe refractometry; x2 = 0.75
[4] = xn = mol fraction of the nth substance listed; conditions: 293.15 K; 101 kPa; Liquid; Vibrating tube method; x2 = 0.75

SMILES | refractive index ([1]; 293.15 K) | mass density ([2]; 298.15 K) [kg/m3] | Normal boiling temperature [2] [°C] | refractive index [3] | mass density [4] [kg/m3] | mass density ([2]; 293.15 K) [kg/m3] | refractive index ([1]; 298.15 K)
CC(=O)CC(C)CC(C)C (configuration not stated) [4,6-dimethyl-2-heptanone] + CC(C)CC(=O)CC(C)C | – | – | – | 1.4118 ± 0.0005 | 806.5 ± 0.5 | – | –
CCCCCOC(C)=O [pentyl ethanoate] | 1.4025 ± 0.0006 | – | 149.10 ± 0.2 | – | – | 875.9 ± 0.8 | –
CC(=O)O [acetic acid] | 1.3721 ± 0.0004 | 1044.5 ± 0.6 | 117.90 ± 0.2 | – | – | – | –
O=CO [formic acid] | 1.3711 ± 0.0006 | – | 100.90 ± 0.2 | – | – | 1218.5 ± 1.4 | –

Now from value to compound:

refractive index ([1]; 293.15 K) | mass density ([2]; 298.15 K) [kg/m3] | Normal boiling temperature [2] [°C] | refractive index [3] | mass density [4] [kg/m3] | mass density ([2]; 293.15 K) [kg/m3] | refractive index ([1]; 298.15 K) | SMILES
1.3808 ± 0.0004 | 988.1 ± 0.5 | 141.10 ± 0.2 | – | – | – | – | CCC(=O)O [propanoic acid]
– | 719 ± 0.4 | 68.20 ± 0.2 | – | – | – | 1.3655 ± 0.0004 | CC(C)OC(C)C [diisopropyl ether]
